According to US20260256926A1, “BIFACIAL PEPTIDE NUCLEIC ACID PROBES AND METHODS OF USING THEREOF” (Ohio State Innovation Foundation, priority 2022, published 2026):

Tests used:
[1] = parent dye free in solution; cited from earlier work
[2] = cited from earlier work
[3] = system: duplex nucleic acid substrates bearing single abasic, single NCP, and tandem NCP sites; assay: Fluorogenic probe library screen, overall; type: binding; conditions: 2 μM probe, 2 μM duplex
Experimental: (§1) Fluorescence Measurements. Samples for screening were prepared as solutions with 50 mM HEPES (pH 7.5), 100 mM NaCl, 2 μM dsDNA/dsRNA, 2 μM probe (4 μM probe with tandem mismatch). Prior to use, nucleic acids were annealed (95° C./5 min, slow cool to RT over 2 h) to pre-form the duplex. Prepared samples were incubated at room temperature for 30 min before measuring fluorescence (Thermo Fisher Nanodrop 3300, excitation/emission=470/522 nm). For each measurement, 2 μl of sample was applied to the center of the nanodrop probe. All fluorescence values are the average of triplicate measurements, starting from fresh sample preparation. Error bars indicate standard deviation. The relative intensity (turn-on) was calculated using the equation below.

[4] = system: tandem NCP sites (2×2 internal bulges) in dsRNA; assay: Tandem NCP RNA library screen; type: binding; conditions: 4 μM probe, 2 μM RNA duplex
Experimental: as §1

In the case of `CN1C(=Cc2cc[n+](C)c3ccccc23)Sc2ccccc21` [thiazole orange], the “quantum yield in solution” value [1] is given as ~ 10^−4.

For `O=c1[nH]c(=O)[nH]c(=O)[nH]1` [cyanuric acid], the pKa [2] is listed as ~ 6.9.

In the case of `Oc1nc(O)nc(O)n1` [CA], the “binding in the abasic or single NCP screens” value [3] is reported as “did not show any binding” and the “targeting of AG/CU internal bulge” value [4] is reported as “could be targeted”.

For `Nc1nc(=O)[nH]c(=O)[nH]1` [ammelide], the pKa [2] is given as ~ 6.9.
